# Results from patent publication US20030134859A1 (SANKYO COMPANY, LIMITED, priority 2000, published 2003).
# Structures can show the parent of a compound that is named as a salt.
# System: Rat white adipocytes
# Assay: Inhibition of the differentiation of adipocytes (Oil Red O)
# Assay type: cell-based
# Settings: 100 nM test compound; 5 days; Oil Red O ABS550; control = 100%, blank = 0%; Table 3
# Method in brief: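 Rat white preadipocytes, 5,000 cells/well, given differentiation medium with compound at 100 nM final (0.1% DMSO) for 5 days at 37 °C. Lipid stained with Oil Red O, eluted in DMSO, read at 550 nm; differentiation % relative to DMSO control (100%) and blank (0%).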
row,Compound,Rate of Differentiation (%)
1,"CCCCCCCCN(CCCC)c1ccc(-c2ccc(NC(=O)c3cc([N+](=O)[O-])ccc3Cl)cc2)cc1.Cl [Example 223, N-[4-[4-(N-Butyl-N-octylamino)phenyl]phenyl]-(2-chloro-5-nitrophenyl)carboxamide mono-hydrochloride]",35.0%
2,N-(Ethoxyphenyl)-(2-chloro-5-nitrophenyl)carboxamide [Example 229],62.7%

# Same assay, conditions: Rattus norvegicus, Adipocyte, 120 h, 100 nM test compound; 5 days; Oil Red O ABS550; control = 100%, blank = 0%; Table 3; read-out: Rate of Differentiation (%)
row,Compound,activity at 0.1 µM
1,"Cc1ccc2nc(-c3ccc(NC(=O)c4cc([N+](=O)[O-])ccc4Cl)cc3)sc2c1 [Example 10, N-[4-(6-Methylbenzothiazol-2-yl)phenyl]-(2-chloro-5-nitrophenyl)carboxamide]",51.1%
2,"Nc1ccc(NC(=O)c2cc([N+](=O)[O-])ccc2Cl)cc1 [Example 58, N-(4-Aminophenyl)-(2-chloro-5-nitrophenyl)carboxamide mono-hydrochloride]",51.7%
3,"CC(C)(C)OC(=O)Nc1ccc(-c2ccc(NC(=O)c3cc([N+](=O)[O-])ccc3Cl)cc2)cc1 [Example 87, N-[4-[4-(tert-Butoxycarbonylamino)phenyl]phenyl]-(2-chloro-5-nitrophenyl)carboxamide]",75.2%
4,"O=C(Nc1cccc(O)c1)c1cc([N+](=O)[O-])ccc1Cl [Example 191, N-(3-Hydroxyphenyl)-(2-chloro-5-nitrophenyl)carboxamide]",63.4%
5,"CCCCCCNc1ccc(-c2ccc(NC(=O)c3cc([N+](=O)[O-])ccc3Cl)cc2)cc1 [Example 195, N-[4-[4-(N-Hexylamino)phenyl]phenyl]-(2-chloro-5-nitrophenyl)carboxamide]",36.5%
6,"CCCCCCN(C)c1ccc(-c2ccc(NC(=O)c3cc([N+](=O)[O-])ccc3Cl)cc2)cc1 [Example 196, N-[4-[4-(N-Hexyl-N-methylamino)phenyl]phenyl]-(2-chloro-5-nitrophenyl)carboxamide]",53.4%
7,"CCCCCCN(CC)c1ccc(-c2ccc(NC(=O)c3cc([N+](=O)[O-])ccc3Cl)cc2)cc1 [Example 197, N-[4-[4-(N-Ethyl-N-hexylamino)phenyl]phenyl]-(2-chloro-5-nitrophenyl)carboxamide]",45.7%
8,"CCCCCCCCNc1ccc(-c2ccc(NC(=O)c3cc([N+](=O)[O-])ccc3Cl)cc2)cc1 [Example 219, N-[4-[4-(N-Octylamino)phenyl]phenyl]-(2-chloro-5-nitrophenyl)carboxamide]",36.6%
9,"CCCCCCCCN(CCCCCC)c1ccc(-c2ccc(NC(=O)c3cc([N+](=O)[O-])ccc3Cl)cc2)cc1 [Example 220, N-[4-[4-(N-Hexyl-N-octylamino)phenyl]phenyl]-(2-chloro-5-nitrophenyl)carboxamide mono-hydrochloride]",38.4%
10,"CCCCCCCCN(CCCC)c1ccc(-c2ccc(NC(=O)c3cc([N+](=O)[O-])ccc3Cl)cc2)cc1 [Example 222, N-[4-[4-(N-Butyl-N-octylamino)phenyl]phenyl]-(2-chloro-5-nitrophenyl)carboxamide]",48.6%
11,"CCCCCCCCN(CCC)c1ccc(-c2ccc(NC(=O)c3cc([N+](=O)[O-])ccc3Cl)cc2)cc1 [Example 224, N-[4-[4-(N-Octyl-N-propylamino)phenyl]phenyl]-(2-chloro-5-nitrophenyl)carboxamide]",40.9%
12,"CCCCCCCCN(CC)c1ccc(-c2ccc(NC(=O)c3cc([N+](=O)[O-])ccc3Cl)cc2)cc1 [Example 225, N-[4-[4-(N-Ethyl-N-octylamino)phenyl]phenyl]-(2-chloro-5-nitrophenyl)carboxamide]",45.9%
13,"O=C(Nc1ccc(N2CCN(C(=O)c3ccncc3)CC2)cc1)c1cc([N+](=O)[O-])ccc1Cl [Example 228, N-[4-[4-(Pyridin-4-ylcarbonyl)piperazin-1-yl]phenyl]-(2-chloro-5-nitrophenyl)carboxamide]",17.5%
14,"O=C(Nc1ccc(CCO)cc1)c1cc([N+](=O)[O-])ccc1Cl [Example 230, N-[4-(2-Hydroxyethyl)phenyl]-(2-chloro-5-nitrophenyl)carboxamide]",48.9%
15,"O=C(Nc1ccc(-n2ccnc2)cc1)c1cccc(NC(=O)c2cc([N+](=O)[O-])ccc2Cl)c1 [Example 231, N-[[3-[4-(Imidazol-1-yl)phenyl]aminocarbonyl]phenyl]-(2-chloro-5-nitrophenyl)carboxamide]",20.1%
16,"CCN(c1ccc(NS(=O)(=O)c2ccc(NC(=O)c3cc([N+](=O)[O-])ccc3Cl)cc2)cc1)C(C)C [Example 232, N-[[4-[4-(N-Ethyl-N-isopropylamino)phenyl]aminosulfonyl]phenyl]-(2-chloro-5-nitrophenyl)carboxamide]",45.4%
17,"Nc1nc(-c2cccc(NC(=O)c3cc([N+](=O)[O-])ccc3Cl)c2)cs1 [Example 233, N-[3-(2-Amiothiazol-4-yl)phenyl]-(2-chloro-5-nitrophenyl)carboxamide]",47.4%
18,"CC(C)(C)OC(=O)Nc1cccc(-c2csc(NC(=O)c3cc([N+](=O)[O-])ccc3Cl)n2)c1 [Example 234, N-[4-(3-tert-Butoxycarbonylaminophenyl)thiazol-2-yl]-(2-chloro-5-nitrophenyl)carboxamide]",60.5%
19,"CS(=O)(=O)N(c1ccc(-c2ccc(NC(=O)c3cc([N+](=O)[O-])ccc3Cl)cc2)cc1)S(C)(=O)=O [Example 235, N-[4-[4-(N,N-Dimethanesulfonylamino)phenyl]phenyl]-(2-chloro-5-nitrophenyl)carboxamide]",3.6%
20,"CC(O)c1cccc(NC(=O)c2cc([N+](=O)[O-])ccc2Cl)c1 (centres unmarked) [Example 239, N-[3-(1-Hydroxyethyl)phenyl]-(2-chloro-5-nitrophenyl)carboxamide]",52.8%
21,"O=C(Nc1ccc(NC(=S)Nc2cccnc2)cc1)c1cc([N+](=O)[O-])ccc1Cl [Example 257, N-[4-[(Pyridin-3-yl)aminothiocarbonylamino]phenyl]-(2-chloro-5-nitrophenyl)carboxamide]",59.8%
22,"O=C(Nc1ccc(-c2ccc(NC(=S)Nc3ccncc3)cc2)cc1)c1cc([N+](=O)[O-])ccc1Cl [Example 258, N-[4-[4-[(Pyridin-4-yl)aminothiocarbonylamino]phenyl]phenyl]-(2-chloro-5-nitrophenyl)carboxamide]",39%
23,"O=C(Nc1ccc(NC(=S)Nc2ccncc2)cc1)c1cc([N+](=O)[O-])ccc1Cl [Example 259, N-[4-[(Pyridin-4-yl)aminothiocarbonylamino]phenyl]-(2-chloro-5-nitrophenyl)carboxamide]",56.5%
24,"NCCc1ccc(NC(=O)c2cc([N+](=O)[O-])ccc2Cl)cc1 [Example 267, N-[4-(2-Aminoethyl)phenyl]-(2-chloro-5-nitrophenyl)carboxamide]",47.3%
25,"O=C(Nc1ccc(CCNC(=S)Nc2cccnc2)cc1)c1cc([N+](=O)[O-])ccc1Cl [Example 273, N-[4-[2-(Pyridin-3-yl)aminothiocarbonylaminoethyl]phenyl]-(2-chloro-5-nitrophenyl)carboxamide]",47.9%

# System: human colon cancer cells COL-2-JCK
# Assay: Inhibition of colony forming activity in human colon cancer cells
# Assay type: cell-based
# Settings: Homo sapiens, 240 h; 1 μM test compound; 10 days; sum of colony areas vs control; read-out: Inhibition Rate (%) against the colony forming activity
# Method in brief: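 COL-2-JCK cells seeded at 300 cells/well and grown 10 days at 37 °C, 5% CO2 with compound at 1 μM final (0.1% DMSO). Colonies stained with crystal violet in formalin; inhibition % = (1 − treated/control colony area)×100.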
row,Compound,inhibition at 1 µM
1,"O=C(Nc1ccc(-c2ccccc2)cc1)c1cc([N+](=O)[O-])ccc1Cl [Example 2, N-(4-Phenylphenyl)-(2-chloro-5-nitrophenyl)carboxamide]",8%
2,"Cc1cnc(NC(=O)c2cc([N+](=O)[O-])ccc2Cl)s1 [Example 4, N-(5-Methylthiazol-2-yl)-(2-chloro-5-nitrophenyl)carboxamide]",62%
3,"O=C(Nc1cccc(-c2ccccc2)c1)c1cc([N+](=O)[O-])ccc1Cl [Example 5, N-(3-Phenylphenyl)-(2-chloro-5-nitrophenyl)carboxamide]",26%
4,"COc1ccc(NC(=O)c2cc([N+](=O)[O-])ccc2Cl)cc1-c1ccccc1 [Example 6, N-(4-Methoxy-3-phenyl)phenyl-(2-chloro-5-nitrophenyl)carboxamide]",22%
5,"O=C(Nc1ccccc1-c1ccccc1)c1cc([N+](=O)[O-])ccc1Cl [Example 7, N-(2-Phenylphenyl)-(2-chloro-5-nitrophenyl)carboxamide]",24%
6,"CCCCCc1ccc(NC(=O)c2cc([N+](=O)[O-])ccc2Cl)cc1 [Example 16, N-(4-Pentylphenyl)-(2-chloro-5-nitrophenyl)carboxamide]",48%
7,"CC(C)(C)c1cc(NC(=O)c2cc([N+](=O)[O-])ccc2Cl)cc(C(C)(C)C)c1O [Example 29, N-(3,5-Di-t-butyl-4-hydroxyphenyl)-(2-chloro-5-nitrophenyl)carboxamide]",41%
8,"O=C(Nc1cccc(NS(=O)(=O)c2ccccc2)c1)c1cc([N+](=O)[O-])ccc1Cl [Example 30, N-(3-Benzensulfonylaminophenyl)-(2-chloro-5-nitrophenyl)carboxamide]",42%
9,"O=C(Nc1nc(-c2ccccc2)cs1)c1cc([N+](=O)[O-])ccc1Cl [Example 35, N-(4-Phenylthiazol-2-yl)-(2-chloro-5-nitrophenyl)carboxamide]",15%
10,"O=C(Nc1nc(-c2cccnc2)cs1)c1cc([N+](=O)[O-])ccc1Cl [Example 37, N-[4-(3-Pyridyl)thiazol-2-yl)-(2-chloro-5-nitrophenyl)carboxamide]",52%
11,"O=C(Nc1nc(-c2ccccn2)cs1)c1cc([N+](=O)[O-])ccc1Cl [Example 38, N-[4-(2-Pyridyl)thiazol-2-yl)-(2-chloro-5-nitrophenyl)carboxamide]",99.9%
